Data taken from patent EP0719251B1, “BICYCLO (2.2.2) OCTANE DERIVATIVES CHOLECYSTOKININ AND/OR GASTRIN ANTAGONISTS” (JAMES BLACK FOUNDATION LIMITED, priority 1993, dated 1995).

Columns and labels:
gastrin = molecular target: T1, gastrin (Rattus norvegicus, UniProt P30553); assay: gastrin antagonist activity in an immature rat stomach assay; conditions: isolated immature rat stomach, cumulative pentagastrin dose-response curves, acid secretion; read-out: Gastrin pKB (converted)
T1 construct: The stomach was excised and flushed with ca. 1 ml of unbuffered physiological saline solution; from tissue; host or cells: isolated whole stomach of immature rats (33-50 g, ca. 21 days old)
T1 sequence (P30553 1-452): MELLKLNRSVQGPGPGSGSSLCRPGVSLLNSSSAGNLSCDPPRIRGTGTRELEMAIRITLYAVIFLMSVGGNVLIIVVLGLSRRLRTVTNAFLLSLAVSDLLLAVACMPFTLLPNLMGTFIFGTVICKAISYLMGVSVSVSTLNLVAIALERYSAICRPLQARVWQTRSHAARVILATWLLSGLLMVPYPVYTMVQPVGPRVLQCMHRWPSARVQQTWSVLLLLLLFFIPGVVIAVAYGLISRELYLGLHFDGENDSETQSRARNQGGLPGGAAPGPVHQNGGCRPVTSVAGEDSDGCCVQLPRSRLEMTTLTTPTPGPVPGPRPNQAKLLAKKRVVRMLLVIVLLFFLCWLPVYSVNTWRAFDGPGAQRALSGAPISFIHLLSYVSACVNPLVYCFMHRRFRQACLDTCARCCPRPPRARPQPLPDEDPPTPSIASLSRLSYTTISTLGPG
Description: The compounds of the examples were also tested for gastrin antagonist activity in an immature rat stomach assay. The procedure was as follows: The oesophagus of immature rats (33-50 g, ca. 21 days old) was ligated at the level of the cardiac sphincter and the duodenal sphincter was cannulated. The stomach was excised and flushed with ca. 1 ml of unbuffered physiological saline solution. The fundus was punctured and cannulated. A further 4-5 ml of unbuffered solution was flushed through the stomach to ensure the preparation was not leaking. […] The stomach was continuously perfused at a rate of 1 ml min^-1 with unbuffered solution gassed with 100% O2 with the perfusate passing over an internally referenced pH-electrode fixed 12 cm above the stomach. After 120 min of stabilisation the drugs were added directly to the serosal solution in the organ bath and after a further 60 min cumulative pentagastrin dose-response curves were started.

CCKA = molecular target: T2, CCKA (Cavia porcellus, UniProt Q63931); assay: CCKA binding assay in guinea-pig pancreas membranes; conditions: [125I]-CCK8(S) 200pM; for Ki: containing 0.375 µM PD134,308, read-out: CCKA pKi (converted); for CCKA pKi: containing 0.375 µM PD134,308
T2 construct: The pancreatata were removed from male guinea-pigs (200-300g; Dunkin Hartley); from tissue; host or cells: pancreas membranes of male Dunkin Hartley guinea-pigs
T2 sequence (Q63931 1-430): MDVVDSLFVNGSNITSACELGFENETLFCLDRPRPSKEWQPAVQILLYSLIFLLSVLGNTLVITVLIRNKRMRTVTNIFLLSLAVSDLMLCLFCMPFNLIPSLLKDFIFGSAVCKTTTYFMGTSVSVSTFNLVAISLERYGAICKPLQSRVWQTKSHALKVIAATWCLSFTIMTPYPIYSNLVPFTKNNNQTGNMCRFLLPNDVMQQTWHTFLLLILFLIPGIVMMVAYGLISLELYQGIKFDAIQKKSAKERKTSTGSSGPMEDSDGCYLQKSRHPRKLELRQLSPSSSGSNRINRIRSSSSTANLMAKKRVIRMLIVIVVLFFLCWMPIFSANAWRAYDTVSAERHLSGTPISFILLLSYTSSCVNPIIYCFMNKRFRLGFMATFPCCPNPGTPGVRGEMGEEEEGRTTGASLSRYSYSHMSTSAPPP
Description: The compounds of the examples were also tested in a CCKÅ binding assay as follows:
The pancreatata were removed from male guinea-pigs (200-300g; Dunkin Hartley) and placed in ice-cold HEPES buffer (pH 7.2 @ 21 ± 3° ). The pancreatata were homogenised in 40 ml ice-cold HEPES buffer using a polytron (Brinkmann, PT10, setting 10) 4 x 1 second.
The homogenate was centrifuged at 39,800g for 15 min at 4°. The supernatant was discarded and the pellet re-suspended using a Teflon-in-glass homogeniser in 20 volumes of fresh buffer and recentrifuged as above. The final pellet was re-suspended using a Teflon-in-glass homogeniser to a tissue concentration of 1 mg.ml^-1 (original wet weight), and filtered through 500 µm pore-size Nytex mesh.
The membranes (400µl; containing 0.375 µM PD134,308) are incubated for 150 minutes at 21 ± 3° in a final volume of 0.5ml with HEPES buffer containing [^125I]-CCK8(S) (50µl; 200pM) and competing compound. Total and non-specific binding of [^125I]-CCK8 (S) are defined using 50µl of buffer and 50µl of 100nM L-364,718 respectively. The assay is terminated by rapid filtration through pre-soaked Whatman GF/B filters using a Brandell Cell Harvester. The filters were washed (3 x 3ml) with ice-cold 50mM Tris HCl (pH 7.4 at 4° ) and bound radioactivity is determined by counting (1 min) in a gamma counter.

CCKB receptor = molecular target: T3, CCKB receptor (Mus musculus, UniProt P56481); assay: radioligand binding assay at the CCKB receptor in mouse cortical membranes; conditions: [125I]-CCK8S 200pM, 150 min at 21 ± 3°C; for Ki: read-out: CCKB pKi (converted)
T3 construct: The whole brains from male mice (CD1 22-25g; Charles River) were removed; from tissue; host or cells: cerebral cortex membranes of male CD1 mice
T3 sequence (P56481 1-453): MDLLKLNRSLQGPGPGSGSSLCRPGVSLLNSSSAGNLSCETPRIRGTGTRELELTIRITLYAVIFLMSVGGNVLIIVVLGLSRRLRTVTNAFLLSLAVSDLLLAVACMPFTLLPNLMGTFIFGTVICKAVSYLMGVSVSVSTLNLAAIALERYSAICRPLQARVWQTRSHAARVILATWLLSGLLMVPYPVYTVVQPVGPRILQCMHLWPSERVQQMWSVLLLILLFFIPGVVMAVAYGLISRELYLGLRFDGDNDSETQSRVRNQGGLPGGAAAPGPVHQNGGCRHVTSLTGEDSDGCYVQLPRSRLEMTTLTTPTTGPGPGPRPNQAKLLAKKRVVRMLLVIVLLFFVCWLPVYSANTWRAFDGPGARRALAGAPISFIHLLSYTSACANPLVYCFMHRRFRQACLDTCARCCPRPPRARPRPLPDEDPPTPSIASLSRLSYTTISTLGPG
Description: The compounds of the examples were tested for binding at the CCKB receptor in mouse cortical membranes by means of a radioligand binding assay. The procedure was as follows:
The whole brains from male mice (CD1 22-25g; Charles River) were removed and placed in ice-cold buffer (pH7.2 @ 21 ± 3°C) of the following composition (mM); 10 HEPES, 130 NaCl, 4.7 KCl, 5 MgCl2, 1 EDTA and containing 0.25g.l^-1 bacitracin. The cortex was dissected, weighed and homogenised in 40ml ice-cold buffer using a Teflon-in-glass homogeniser. The homogenate was centrifuged at 39,800g for 20 min at 4°C, the supernatant discarded and the pellet resuspended by homogenisation in fresh buffer. The homogenate was recentrifuged (39,800g; 20 min @ 4°C) and the final pellet was resuspended in HEPES buffer to give a tissue concentration of 2mg.ml^-1(original wet weight).
The assay was terminated by rapid filtration through pre-soaked Whatman GF/B filters using a Brandell Cell harvester. The filters were washed (3 x 3ml) with ice-cold 50mM Tris-HCl (pH7.4 @ 4°C) and bound radioactivity determined by counting (1 min.) in a gamma-counter.

Q: For O=C(O)c1cc(NC(=O)[C@H](Cc2ccccc2)NC(=O)C2C3c4ccccc4C(c4ccccc43)C2C(=O)NCC23CC4CC(CC(C4)C2)C3)cc(C(=O)O)c1 (single isomer, unassigned) [Example 1, cis-7-(1S-(3,5-dicarboxyphenylamino-carbonyl) -2-phenylethylaminocarbonyl)-8-(1-adamantanemethylamino-carbonyl) -2,3,5,6-dibenzobicyclo[2.2.2] octane], which Kb (gastrin) is on record?
A: 0.00501 µM

Q: What about the Ki (CCKA) of the same compound?
A: 2 µM

Q: What about the Ki (CCKB receptor) of the same compound?
A: 0.00158 µM

Q: How did the Kb (gastrin) turn out when O=C(O)c1cc(NC(=O)[C@H](Cc2ccccc2)NC(=O)C2C3c4ccccc4C(c4ccccc43)C2C(=O)NCC23CC4CC(CC(C4)C2)C3)cc(C(=O)O)c1 (single isomer, unassigned) [Example 2, cis-7-(1S-(3,5-dicarboxyphenylaminocarbonyl) -2-phenylethylaminocarbonyl)-8-(1-adamantanemethylaminocarbonyl)-2,3,5,6-dibenzobicyclo[2.2.2] octane] was run?
A: 0.0501 µM

Q: What about the Ki (CCKA) of the same compound?
A: 0.501 µM

Q: What about the Ki (CCKB receptor) of the same compound?
A: 0.0158 µM

Q: How did the Ki (CCKA) turn out when O=C(NCC12CC3CC(CC(C3)C1)C2)C1C2c3ccccc3C(c3ccccc32)C1C(=O)N[C@@H](Cc1ccccc1)C(=O)Nc1ccccc1 (single isomer, unassigned) [Example 22, cis-7-(1S-(phenylaminocarbonyl)-2-phenyl-ethylaminocarbonyl)-8-(1-adamantanemethylaminocarbonyl) -2,3,5,6-dibenzobicyclo[2.2.2]octane] was run?
A: 1.26 µM

Q: What about the Ki (CCKB receptor) of the same compound?
A: 3.98 µM

Q: What does the source list for O=C(O)c1cc(NC(=O)[C@H](Cc2ccccc2)NC(=O)C2C3c4ccccc4C(c4ccccc43)C2C(=O)NCc2cccc3ccccc23)cc(C(=O)O)c1 (single isomer, unassigned) [Example 33, cis-7-(1S-(3,5-dicarboxyphenylaminocarbonyl)-2-phenylethylaminocarbonyl)-8-(1-naphthalenemethylaminocarbonyl)-2,3,5,6-dibenzobicyclo[2.2.2]octane]?
A: Ki (CCKA): 1.26 µM; Ki (CCKB receptor): 0.316 µM

Q: What does the source list for O=C(O)c1cc(NC(=O)[C@H](Cc2ccccc2)NC(=O)C2C3c4ccccc4C(c4ccccc43)C2C(=O)NCCc2c[nH]c3ccccc23)cc(C(=O)O)c1 (single isomer, unassigned) [Example 50, cis-7-(1S-(3,5-dicarboxyphenylaminocarbonyl) -2-phenylethylaminocarbonyl)-8-(3-indolylethylaminocarbonyl)-2,3,5,6-dibenzobicyclo[2.2.2] octane]?
A: Ki (CCKA): 0.398 µM; Ki (CCKB receptor): 0.0158 µM

Q: What does the source list for O=C(O)c1cc(NC(=O)[C@H](Cc2ccccc2)NC(=O)C2C3c4ccccc4C(c4ccccc43)C2C(=O)NCCc2c[nH]c3ccccc23)cc(C(=O)O)c1 (single isomer, unassigned) [Example 51, cis-7-(1S-(3,5-dicarboxyphenylaminocarbonyl) -2-phenylethylaminocarbonyl)-8-(3-indolylethylaminocarbonyl) -2,3,5,6-dibenzobicyclo [2.2.2]octane]?
A: Ki (CCKA): 1.58 µM; Ki (CCKB receptor): 0.0794 µM

Q: How did the Ki (CCKA) turn out when O=C(O)c1cccc(NC(=O)[C@H](Cc2cccs2)NC(=O)C2C3c4ccccc4C(c4ccccc43)C2C(=O)NCC23CC4CC(CC(C4)C2)C3)c1 (single isomer, unassigned) [Example 55, cis-7-(1S-(3-carboxyphenylaminocarbonyl)-2-(2-thiophenyl)ethylaminocarbonyl)-8-(1-adamantanemethylaminocarbonyl)-2,3,5,6-dibenzobicyclo[2.2.2]octane] was run?
A: 0.794 µM

Q: And the Ki (CCKB receptor)?
A: 0.00631 µM

Q: With O=C(O)c1cccc(NC(=O)[C@H](Cc2cccs2)NC(=O)C2C3c4ccccc4C(c4ccccc43)C2C(=O)NCC23CC4CC(CC(C4)C2)C3)c1 (single isomer, unassigned) [Example 56] as the compound, how does the Ki (CCKA) read?
A: 1 µM

Q: What about the Ki (CCKB receptor) of the same compound?
A: 0.0251 µM

Q: Which Ki (CCKA) does the source give for O=C(O)c1ccccc1NC(=O)[C@H](Cc1ccccc1)NC(=O)C1C2c3ccccc3C(c3ccccc32)C1C(=O)NCC12CC3CC(CC(C3)C1)C2 (stereo partly drawn) [Example 45, cis-7-(1S-(2-carboxyphenylaminocarbonyl)-2-phenylethylaminocarbonyl)-8-(1-adamantane-methylaminocarbonyl) -2,3,5,6-dibenzobicyclo[2.2.2]octane] here?
A: 1.26 µM

Q: And the Ki (CCKB receptor)?
A: 0.2 µM

Q: Which results are given for “cis-7-(1S-(3,5-dicarboxyphenylaminocarbonyl) -2-phenylethylaminocarbonyl)-8-(2-thiophenylmethylaminocarbonyl)-2,3,5,6-dibenzobicyclo[2.2.2] octane [Example 52]”?
A: CCKA pKi (CCKA): 6.8; CCKB pKi (CCKB receptor): 7.3

Q: Which results are given for “cls-7-(1S-(3,5-dicarboxyphenylaminocarbonyl) -2-phenylethylaminocarbonyl) -8-(2-phenylpropylaminocarbonyl) -2,3,5,6-dibenzobicyclo[2.2.2]octane [Example 54]”?
A: CCKA pKi (CCKA): 5.8; CCKB pKi (CCKB receptor): 7.5
